# Like-named read-outs stand apart in the source and are kept apart here. Positions of bridges follow the written chain, without caps; N, C: chain ends. Non-standard residues stand in square brackets, D forms with d. Residues, ends and D or L forms follow the SMILES beside them.
# Assay: Biodistribution in B16/F1 melanoma-bearing C57 mice
# Format: in vivo
# Conditions: female, C57, mouse, iv, total radioactivity; for tissue uptake dose at 0.5 h / tissue uptake at 0.5 h: 0.5 h post-injection; for tissue uptake dose at 4 h / tissue uptake at 4 h: 4 h post-injection; for tissue uptake dose at 24 h / tissue uptake at 24 h: 24 h post-injection
# Experimental: All the animal studies were conducted in compliance with Institutional Animal Care and Use Committee approval. The pharmacokinetics of ^99mTc-RGD-Lys-(Arg^11)CCMSH was determined in B16/F1 melanoma-bearing C57 female mice (Harlan, Indianapolis, Ind.). C57 mice were subcutaneously inoculated on the right flank with 1×10^6 B16/F1 cells. The weight of tumors reached approximately 0.2 g 10 days post cell inoculation. Each melanoma-bearing mouse was injected with 0.037 MBq of ^99mTc-RGD-Lys-(Arg^11)CCMSH via the tail vein. Groups of 5 mice were sacrificed at 0.5, 2, 4 and 24 h post-injection, and tumors and organs of interest were harvested, weighed and counted. Blood values were taken as 6.5% of the whole-body weight. The MC1 receptor specificity of the tumor uptake was determined at 2 h post-injection by co-injecting ^99mTc-RGD-Lys-(Arg^11)CCMSH with 10 μg (6.1 nmol) of unlabeled NDP-MSH, a linear α-MSH peptide analogue with picomolar affinity for the MC1 receptors present on murine melanoma cells. The co-injection of 3.5 μg (6.1 nmol) of RGD peptide was performed to determine the αvβ3 integrin specificity of the tumor uptake 2 h post-injection. Statistical analysis was performed using the Student's t-test for unpaired data.
# All the animal studies were conducted in compliance with Institutional Animal Care and Use Committee approval. The pharmacokinetics of ^99mTc-RGD-Arg-(Arg^11)CCMSH was determined in B16/F1 melanoma-bearing C57 female mice (Harlan, Indianapolis, Ind.). C57 mice were subcutaneously inoculated on the right flank with 1×10^6 B16/F1 cells. The weight of tumors reached approximately 0.2 g 10 days post cell inoculation. Each melanoma-bearing mouse was injected with 0.037 MBq of ^99mTc-RGD-Arg-(Arg^11)CCMSH via the tail vein. Groups of 5 mice were sacrificed at 0.5, 2, 4 and 24 h post-injection, and tumors and organs of interest were harvested, weighed and counted. Blood values were taken as 6.5% of the whole-body weight. The MC1 receptor specificity of the tumor uptake was determined at 2 h post-injection by co-injecting ^99mTc-RGD-Arg-(Arg^11)CCMSH with 10 μg (6.1 nmol) of unlabeled NDP-MSH. The co-injection of 3.5 μg (6.1 nmol) of RGD peptide was performed to determine the αvβ3 integrin specificity of the tumor uptake at 2 h post-injection.
# [1] = bladder, 0.037 MBq, read-out: Bladder, Percentage Injected Dose
# [2] = blood, 0.037 MBq, read-out: Blood, Percentage Injected Dose/gram
# [3] = bone, 0.037 MBq, read-out: Bone, Percentage Injected Dose/gram
# [4] = brain, 0.037 MBq, read-out: Brain, Percentage Injected Dose/gram
# [5] = heart, 0.037 MBq, read-out: Heart, Percentage Injected Dose/gram
# [6] = intestines, 0.037 MBq, read-out: Intestines, Percentage Injected Dose
# [7] = kidneys, 0.037 MBq, read-out: Kidneys, Percentage Injected Dose/gram
# [8] = liver, 0.037 MBq, read-out: Liver, Percentage Injected Dose/gram
# [9] = lung, 0.037 MBq, read-out: Lung, Percentage Injected Dose/gram
# [10] = muscle, 0.037 MBq, read-out: Muscle, Percentage Injected Dose/gram
compound,measurement,setting,value
"CC(C)[C@H](NC(=O)[C@@H]1CCCN1C(=O)[C@H](CCCNC(=N)N)NC(=O)[C@H](CS)NC(=O)[C@H](Cc1c[nH]c2ccccc12)NC(=O)[C@H](CCCNC(=N)N)NC(=O)[C@@H](Cc1ccccc1)NC(=O)[C@H](Cc1c[nH]cn1)NC(=O)[C@H](CCC(=O)O)NC(=O)[C@H](CS)NC(=O)[C@H](CS)NC(=O)[C@H](CCCCN)NC(=O)[C@@H]1CC(=O)N[C@@H](CCCNC(=N)N)C(=O)NCC(=O)N[C@@H](CC(=O)O)C(=O)N[C@H](Cc2ccc(O)cc2)C(=O)N1)C(N)=O [^99mTc-RGD-Lys-(Arg^11)CCMSH, metal not drawn] (RGD[dY]DKCCEH[dF]RWCRPV-NH2; lactam N-5)",dose excreted at 2 h,"bladder (urine), 0.037 MBq, 2 h post-injection, read-out: Bladder, Percentage Injected Dose (cleared through the urinary system)",62.3 ± 8.16%
same,tissue uptake dose at 0.5 h,[1],46.9 ± 2.54 %ID
same,tissue uptake dose at 4 h,[1],68.7 ± 2.06 %ID
same,tissue uptake dose at 24 h,[1],78.2 ± 5.29 %ID
same,tissue uptake dose at 2 h,"bladder, 2 h post-injection, NDP blockade (10 μg NDP-MSH co-injected), read-out: Bladder, Percentage Injected Dose",75.9 ± 1.75 %ID
same,tissue uptake dose at 2 h,"bladder, 2 h post-injection, RGD blockade (3.5 μg RGD co-injected), read-out: Bladder, Percentage Injected Dose",75.1 ± 3.69 %ID
same,tissue uptake at 0.5 h,[2],3.18 ± 0.51 %ID/g
same,tissue uptake at 2 h,"blood, 0.037 MBq, 2 h post-injection, read-out: Blood, Percentage Injected Dose/gram",0.96 ± 0.87 %ID/g
same,tissue uptake at 4 h,[2],0.5 ± 0.27 %ID/g
same,tissue uptake at 24 h,[2],0.11 ± 0.07 %ID/g
same,tissue uptake at 2 h,"blood, 2 h post-injection, NDP blockade (10 μg NDP-MSH co-injected), read-out: Blood, Percentage Injected Dose/gram",0.32 ± 0.34 %ID/g
same,tissue uptake at 2 h,"blood, 2 h post-injection, RGD blockade (3.5 μg RGD co-injected), read-out: Blood, Percentage Injected Dose/gram",0.53 ± 0.17 %ID/g
same,tissue uptake at 0.5 h,[3],1.53 ± 0.75 %ID/g
same,tissue uptake at 2 h,"bone, 0.037 MBq, 2 h post-injection, read-out: Bone, Percentage Injected Dose/gram",1.05 ± 0.31 %ID/g
same,tissue uptake at 4 h,[3],0.98 ± 0.67 %ID/g
same,tissue uptake at 24 h,[3],0.71 ± 0.39 %ID/g
same,tissue uptake at 2 h,"bone, 2 h post-injection, NDP blockade (10 μg NDP-MSH co-injected), read-out: Bone, Percentage Injected Dose/gram",0.78 ± 0.65 %ID/g
same,tissue uptake at 2 h,"bone, 2 h post-injection, RGD blockade (3.5 μg RGD co-injected), read-out: Bone, Percentage Injected Dose/gram",0.37 ± 0.42 %ID/g
same,tissue uptake at 0.5 h,[4],0.13 ± 0.03 %ID/g
same,tissue uptake at 2 h,"brain, 0.037 MBq, 2 h post-injection, read-out: Brain, Percentage Injected Dose/gram",0.12 ± 0.03 %ID/g
same,tissue uptake at 4 h,[4],0.07 ± 0.04 %ID/g
same,tissue uptake at 24 h,[4],0.06 ± 0.01 %ID/g
same,tissue uptake at 2 h,"brain, 2 h post-injection, NDP blockade (10 μg NDP-MSH co-injected), read-out: Brain, Percentage Injected Dose/gram",0.06 ± 0.02 %ID/g
same,tissue uptake at 2 h,"brain, 2 h post-injection, RGD blockade (3.5 μg RGD co-injected), read-out: Brain, Percentage Injected Dose/gram",0.03 ± 0.01 %ID/g
same,tissue uptake at 0.5 h,[5],2.1 ± 0.41 %ID/g
same,tissue uptake at 2 h,"heart, 0.037 MBq, 2 h post-injection, read-out: Heart, Percentage Injected Dose/gram",0.85 ± 0.16 %ID/g
same,tissue uptake at 4 h,[5],0.62 ± 0.31 %ID/g
same,tissue uptake at 24 h,[5],0.39 ± 0.14 %ID/g
same,tissue uptake at 2 h,"heart, with RGD peptide, 3.5 μg (6.1 nmol) co-injected, 2 h post-injection, RGD blockade (3.5 μg RGD co-injected), read-out: Heart, Percentage Injected Dose/gram",0.37 ± 0.23 %ID/g
same,tissue uptake at 2 h,"heart, with unlabeled NDP-MSH, 10 μg (6.1 nmol) co-injected, 2 h post-injection, NDP blockade (10 μg NDP-MSH co-injected), read-out: Heart, Percentage Injected Dose/gram",0.47 ± 0.18 %ID/g
same,tissue uptake dose at 0.5 h,[6],3.27 ± 0.13 %ID
same,tissue uptake dose at 2 h,"intestines, 0.037 MBq, 2 h post-injection, read-out: Intestines, Percentage Injected Dose",3.14 ± 1.2 %ID
same,tissue uptake dose at 4 h,[6],2.95 ± 0.62 %ID
same,tissue uptake dose at 24 h,[6],1.13 ± 0.18 %ID
same,tissue uptake dose at 2 h,"intestines, 2 h post-injection, NDP blockade (10 μg NDP-MSH co-injected), read-out: Intestines, Percentage Injected Dose",1.97 ± 0.17 %ID
same,tissue uptake dose at 2 h,"intestines, 2 h post-injection, RGD blockade (3.5 μg RGD co-injected), read-out: Intestines, Percentage Injected Dose",1.88 ± 0.16 %ID
same,tissue uptake at 0.5 h,[7],69.4 ± 5.37 %ID/g
same,tissue uptake at 2 h,"kidneys, 0.037 MBq, 2 h post-injection, read-out: Kidneys, Percentage Injected Dose/gram",67.1 ± 8.79 %ID/g
same,tissue uptake at 4 h,[7],68.3 ± 14.3 %ID/g
same,tissue uptake at 24 h,[7],40.3 ± 10.8 %ID/g
same,tissue uptake at 2 h,"kidneys, 2 h post-injection, NDP blockade (10 μg NDP-MSH co-injected), read-out: Kidneys, Percentage Injected Dose/gram",59.5 ± 9.98 %ID/g
same,tissue uptake at 2 h,"kidneys, 2 h post-injection, RGD blockade (3.5 μg RGD co-injected), read-out: Kidneys, Percentage Injected Dose/gram",54.2 ± 15.1 %ID/g
same,tissue uptake at 0.5 h,[8],4.02 ± 0.42 %ID/g
same,tissue uptake at 2 h,"liver, 0.037 MBq, 2 h post-injection, read-out: Liver, Percentage Injected Dose/gram",3.17 ± 1.43 %ID/g
same,tissue uptake at 4 h,[8],2.91 ± 0.8 %ID/g
same,tissue uptake at 24 h,[8],1.73 ± 0.33 %ID/g
same,tissue uptake at 2 h,"liver, 2 h post-injection, NDP blockade (10 μg NDP-MSH co-injected), read-out: Liver, Percentage Injected Dose/gram",2.89 ± 0.25 %ID/g
same,tissue uptake at 2 h,"liver, 2 h post-injection, RGD blockade (3.5 μg RGD co-injected), read-out: Liver, Percentage Injected Dose/gram",2.27 ± 0.23 %ID/g
same,tissue uptake at 0.5 h,[9],5.31 ± 0.53 %ID/g
same,tissue uptake at 2 h,"lung, 0.037 MBq, 2 h post-injection, read-out: Lung, Percentage Injected Dose/gram",1.26 ± 0.32 %ID/g
same,tissue uptake at 4 h,[9],1.07 ± 0.42 %ID/g
same,tissue uptake at 24 h,[9],0.94 ± 0.45 %ID/g
same,tissue uptake at 2 h,"lung, 2 h post-injection, NDP blockade (10 μg NDP-MSH co-injected), read-out: Lung, Percentage Injected Dose/gram",1.31 ± 0.47 %ID/g
same,tissue uptake at 2 h,"lung, 2 h post-injection, RGD blockade (3.5 μg RGD co-injected), read-out: Lung, Percentage Injected Dose/gram",1.12 ± 0.1 %ID/g
same,tissue uptake at 0.5 h,[10],0.38 ± 0.17 %ID/g
same,tissue uptake at 2 h,"muscle, 0.037 MBq, 2 h post-injection, read-out: Muscle, Percentage Injected Dose/gram",0.34 ± 0.29 %ID/g
same,tissue uptake at 4 h,[10],0.13 ± 0.07 %ID/g
same,tissue uptake at 24 h,[10],0.23 ± 0.19 %ID/g
same,tissue uptake at 2 h,"muscle, 2 h post-injection, NDP blockade (10 μg NDP-MSH co-injected), read-out: Muscle, Percentage Injected Dose/gram",0.21 ± 0.12 %ID/g
same,tissue uptake at 2 h,"muscle, 2 h post-injection, RGD blockade (3.5 μg RGD co-injected), read-out: Muscle, Percentage Injected Dose/gram",0.15 ± 0.06 %ID/g
